Experimental data from patent publication US20100311678A1, “METHODS AND COMPOSITIONS FOR TREATING CANCER AND MODULATING SIGNAL TRANSDUCTION AND METABOLISM PATHWAYS” (priority 2007, published 2010).
Entries after “also recorded” stand apart in the source; their conditions may differ.

What was measured:
[1] = system: adult rat dissociated dorsal root ganglion (DRG) neurons; assay: Intracellular delivery of fluorescent doxorubicin into dissociated DRG neurons with the TRPM8 agonist menthol (micrographs); assay type: cell-based; conditions: 2 mM doxorubicin/100 mM L-menthol for 10 minutes vs 2 mM doxorubicin alone for 20 minutes; fluorescence micrographs, FIG. 1
Description: FIG. 1 is a series of micrographs showing intracellular delivery of doxorubicin a fluorescent antiproliferative agent into adult rat dissociated dorsal root ganglion (DRG) neurons. The DRG neurons were treated with vehicle control (FIG. 1A), 2 mM doxorubicin (Adriamycin®) for 20 minutes (FIG. 1B), or 2 mM doxorubicin/100 mM L-menthol for 10 minutes (FIG. 1C). […] The size and number of the fluorescently labeled neurons are similar to those of TRPM8 expressing neurons.
The selective administration of compounds or agents that are cytotoxic to cancer cells is accomplished by the co-administration of menthol, an agonist of the large-pore cation channel receptor TRPM8, along with the antiproliferative agent doxorubicin (Adriamycin®). […] Once doxorubicin is within a cell it enters the nucleus where it binds to DNA.

[2] = system: adult rat dissociated dorsal root ganglion (DRG) neurons; assay: Intracellular delivery of fluorescent doxorubicin into dissociated DRG neurons with the TRPV1 agonist capsaicin (micrographs); assay type: cell-based; conditions: 2 mM doxorubicin/1 mM capsaicin for 5 minutes vs 2 mM doxorubicin alone for 20 minutes; fluorescence micrographs, FIG. 2
Description: FIG. 2 is a series of micrographs showing intracellular delivery of doxorubicin into adult rat dissociated dorsal root ganglion (DRG) neurons. The DRG neurons were treated with vehicle control (FIG. 2A), 2 mM doxorubicin (Adriamycin®) for 20 minutes (FIG. 2B), or 2 mM doxorubicin (Adriamycin®)/1 mM capsaicin for 5 minutes (FIG. 2C). […] The size and number of the fluorescently labeled neurons are similar to those of TRPV1 expressing neurons.
The selective administration of compounds or agents that are cytotoxic to cancer cells is accomplished by the co-administration of capsaicin, an agonist of the large-pore cation channel receptor TRPV1, along with doxorubicin (Adriamycin®).

Structure (SMILES): COc1cccc2c1C(=O)c1c(O)c3c(c(O)c1C2=O)C[C@@](O)(C(=O)CO)C[C@@H]3O[C@H]1C[C@H](N)[C@H](O)[C@H](C)O1 [doxorubicin]
- intracellular delivery/accumulation of doxorubicin [1]: only entered into cells in the presence of menthol; also recorded: intracellular accumulation of the doxorubicin only into those DRG neurons that express TRPM8
- intracellular delivery/accumulation of doxorubicin [2]: only entered into cells in the presence of capsaicin; also recorded: intracellular accumulation of the doxorubicin only into those DRG neurons that express TRPV1
